Source: patent US10508109B2 (priority 2015, dated 2019)
Structures can show the parent of a compound that is named as a salt. Where two headings read alike, the source gives them in different places.

Legend:
SUV39H2 = SUV39H2 (Homo sapiens (Human), UniProt Q9H5I1); details: read-out: IC50 (μM) Suv 39H2 assay
CCD-18Co = assay: Cell-based assay, anti-proliferative activity (Cell Counting Kit-8, 72 hours); details: Homo sapiens, read-out: IC50 (μM) CCD-18Co
How it was run: (§1)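 CCK-8 growth read-out at 72 h post compound exposure; 96-well seeding. IC50 from 8-point dilution (0–100 micro-M, twofold steps from 1.5625 micro-M).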

HCT-116 = assay: as above; details: Homo sapiens, read-out: IC50 (μM) HCT-116
How it was run: as §1

HFL1 = assay: as above; details: Homo sapiens, read-out: IC50 (μM) HFL1
How it was run: as §1

PC14 = assay: as above; details: Homo sapiens, read-out: IC50 (μM) PC14
How it was run: as §1

A549 = assay: as above; details: Homo sapiens, read-out: IC50 (μM) A549
How it was run: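 Seed cells in 96-well format; add inhibitors; measure growth by CCK-8 at end of exposure; derive IC50.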

[1] = CCD-18Co cells, Cell Counting Kit-8, 72 hours
[2] = HCT-116 cells, Cell Counting Kit-8, 72 hours
[3] = HFL1 cells, Cell Counting Kit-8, 72 hours
[4] = PC-14, PC14 cells, Cell Counting Kit-8, 72 hours
[5] = A549 cells, Cell Counting Kit-8, 72 hours
[6] = CCD-18Co cells, 72 hours, Cell Counting Kit-8
[7] = HCT-116 cells, 72 hours, Cell Counting Kit-8
[8] = HFL1 cells, 72 hours, Cell Counting Kit-8
[9] = PC-14, PC14 cells, 72 hours, Cell Counting Kit-8
[10] = A549 cells, 72 hours, Cell Counting Kit-8

SUV39H2, sequence (Q9H5I1 whole entry): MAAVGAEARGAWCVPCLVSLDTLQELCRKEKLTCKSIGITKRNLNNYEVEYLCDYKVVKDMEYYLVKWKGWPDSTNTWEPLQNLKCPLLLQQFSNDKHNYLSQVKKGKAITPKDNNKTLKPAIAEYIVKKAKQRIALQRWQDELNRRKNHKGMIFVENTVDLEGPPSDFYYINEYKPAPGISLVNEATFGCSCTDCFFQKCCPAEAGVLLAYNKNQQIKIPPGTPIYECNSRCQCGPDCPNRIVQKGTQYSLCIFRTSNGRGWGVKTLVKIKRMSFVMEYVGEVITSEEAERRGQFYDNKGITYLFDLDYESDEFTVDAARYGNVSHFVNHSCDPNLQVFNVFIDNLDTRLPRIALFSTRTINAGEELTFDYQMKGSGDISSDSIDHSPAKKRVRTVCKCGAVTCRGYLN

| SMILES | IC50 (SUV39H2; enzyme assay) | IC50 (CCD-18Co; [1]) | IC50 (HCT-116; [2]) | IC50 (HFL1; [3]) | IC50 (PC14; [4]) | IC50 (A549; [5]) | IC50 (CCD-18Co; [6]) | IC50 (HCT-116; [7]) | IC50 (HFL1; [8]) | IC50 (PC14; [9]) | IC50 (A549; [10]) | IC50 (CCD-18Co; CCD-18Co, 72 h) | IC50 (HCT-116; HCT-116, 72 h) | IC50 (HFL1; HFL1, 72 h) | IC50 (PC14; PC-14, 72 h) | IC50 (A549; A549, 72 h) | IC50 (SUV39H2) |
| --- | --- | --- | --- | --- | --- | --- | --- | --- | --- | --- | --- | --- | --- | --- | --- | --- | --- |
| CCOP(=O)(CCN1CCCN(c2ccn3cc(-c4cc(Cl)c(OC)cc4OC)nc3c2)CC1)OCC [Example 210, diethyl (2-(4-(2-(5-chloro-2,4-dimethoxyphenyl)imidazo[1,2-a]pyridin-7-yl)-1,4-diazepan-1-yl)ethyl)phosphonate] | 0.0029 µM | 5.5 µM | 10 µM | 7.2 µM | 4.5 µM | 10 µM |  |  |  |  |  |  |  |  |  |  |  |
| COc1cc(OCCCN(C)C)c(-c2cn3ccc(N4CCCNCC4)cc3n2)cc1Cl [Example 209, 3-{2-[7-(1,4-diazepan-1-yl)imidazo[1,2-a]pyridin-2-yl]-4-chloro-5-methoxyphenoxy}-N,N-dimethylpropan-1-amine] | 0.00207 µM | 3.2 µM | 3.7 µM | 1.2 µM | 2.7 µM | 3 µM |  |  |  |  |  |  |  |  |  |  |  |
| COc1cc(OC)c(-c2cn3ccc(N4CCN(c5ccnc(N6CCOCC6)n5)CC4)cc3n2)cc1Cl [Example 294, 4-(4-(4-(2-(5-chloro-2,4-dimethoxyphenyl)imidazo[1,2-a]pyridin-7-yl)-piperazin-1-yl)pyrimidin-2-yl)morpholine] | 0.0283 µM |  |  |  |  |  | 1.3 µM | 0.78 µM | 2.3 µM | 1 µM | 1.1 µM |  |  |  |  |  |  |
| CCCS(=O)(=O)N1CCN(c2ccn3cc(-c4cc(Cl)c(OC)cc4OC)nc3n2)CC1 [Example 191, 2-(5-chloro-2,4-dimethoxyphenyl)-7-[4-(propylsulfonyl)piperazin-1-yl]-imidazo[1,2-a]pyrimidine] | 0.0293 µM | 3.2 µM | 1.9 µM | 2 µM | 1.5 µM | 1.5 µM |  |  |  |  |  |  |  |  |  |  |  |
| COc1cc(OCCCN(C)C)c(-c2cn3ccc(N4CCNCC4)nc3n2)cc1Cl [Example 186, 3-(4-chloro-5-methoxy-2-(7-(piperazin-1-yl)imidazo[1,2-a]pyrimidin-2-yl)phenoxy)-N,N-dimethylpropan-1-amine] | 0.0619 µM | 35 µM | 17 µM | 7.3 µM | 12 µM | 22 µM |  |  |  |  |  |  |  |  |  |  |  |
| COc1cc(OC)c(-c2cn3cc(NCCN)c(N4CCCC4)cc3n2)cc1Cl [Example 60, N^1-(2-(5-chloro-2,4-dimethoxyphenyl)-7-(pyrrolidin-1-yl)imidazo[1,2-a]-pyridin-6-yl)ethane-1,2-diamine] | 0.0094 µM |  |  |  |  |  |  |  |  |  |  | 6 µM | 6.8 µM | 2 µM | 2.6 µM | 6.8 µM |  |
| COc1cc(OCCCN(C)C)c(-c2cn3ccc(N4CCCN(S(=O)(=O)C5CC5)CC4)cc3n2)cc1Cl [Example 212, 3-(4-chloro-2-(7-(4-(cyclopropylsulfonyl)-1,4-diazepan-1-yl)imidazo[1,2-a]-pyridin-2-yl)-5-methoxyphenoxy)-N,N-dimethylpropan-1-amine] | 0.0161 µM | 6 µM | 8.6 µM | 5.8 µM | 4.2 µM | 8.1 µM |  |  |  |  |  |  |  |  |  |  |  |
| COc1cc(OC)c(-c2cn3ccc(N4CCN(S(=O)(=O)Cc5ccccc5)CC4)cc3n2)cc1Cl [Example 179, 7-[4-(benzylsulfonyl)piperazin-1-yl]-2-(5-chloro-2,4-dimethoxyphenyl)-imidazo[1,2-a]pyridine] | 0.0322 µM | 1.8 µM | 1.6 µM | 1.8 µM | 1.6 µM | 2.1 µM |  |  |  |  |  |  |  |  |  |  |  |
| COc1cc(OC)c(-c2cn3cc(Br)c(N4CCNCC4)cc3n2)cc1Cl [Example 217, 6-bromo-2-(5-chloro-2,4-dimethoxyphenyl)-7-(piperazin-1-yl)-imidazo[1,2-a]pyridine] | 0.0416 µM |  |  |  |  |  | 4.3 µM | 5.5 µM | 4.9 µM | 3.4 µM | 7.2 µM |  |  |  |  |  |  |
| COc1cc(OC)c(-c2cn3ccc(N4CCN(c5nccc(N)n5)CC4)cc3n2)cc1Cl [Example 286, 2-(4-(2-(5-chloro-2,4-dimethoxyphenyl)imidazo[1,2-a]pyridin-7-yl)piperazin-1-yl)-pyrimidin-4-amine] | 0.00881 µM |  |  |  |  |  | 0.71 µM | 0.56 µM | 0.7 µM | 0.63 µM | 0.65 µM |  |  |  |  |  |  |
| COc1cc(OC)c(-c2cn3ccc(N4CCN(C(=O)C5CCCC5)CC4)cc3n2)cc1Cl [Example 241, (4-(2-(5-chloro-2,4-dimethoxyphenyl)imidazo[1,2-a]pyridine-7-yl)piperazin-1-yl)(cyclopentyl)methanone] | 0.00768 µM |  |  |  |  |  | 2.5 µM | 2.4 µM | 1.5 µM | 1.6 µM | 2.3 µM |  |  |  |  |  |  |
| COc1cc(OC)c(-c2cn3ccc(N4CCN(S(C)(=O)=O)CC4)cc3n2)cc1Cl [Example 169, 2-(5-chloro-2,4-dimethoxyphenyl)-7-[4-(methylsulfonyl)piperazin-1-yl]imidazo[1,2-a]pyridine] | 0.0101 µM | 2.8 µM | 2.1 µM | 4.7 µM | 2.2 µM | 1.8 µM |  |  |  |  |  |  |  |  |  |  |  |
| COc1cc(OCCCN(C)C)c(-c2cn3ccc(N4CCC(NC(=O)OC(C)(C)C)CC4)cc3n2)cc1Cl [Example 148, tert-butyl (1-(2-{5-chloro-2-[3-(dimethylamino)propoxy]-4-methoxyphenyl}imidazo[1,2-a]pyridin-7-yl)piperidin-4-yl)carbamate] | 0.0373 µM | 0.78 µM | 1.3 µM | 0.53 µM | 1.4 µM | 1.8 µM |  |  |  |  |  |  |  |  |  |  |  |
| COc1cc(OC)c(-c2cn3ccc(N4CCCC4)cc3n2)cc1Cl [Example 4, 2-(5-chloro-2,4-dimethoxyphenyl)-7-(pyrrolidin-1-yl)imidazo[1,2-a]pyridine hydrobromide] | 0.0031 µM | 1.1 µM | 1.5 µM | 1.4 µM | 1.4 µM | 2 µM |  |  |  |  |  |  |  |  |  |  |  |
| COc1cc(C)c(-c2cn3ccc(N4CCN(S(=O)(=O)C5CC5)C(COCCN(C)C)C4)cc3n2)cc1Cl (stereo not drawn) [Example 264, 2-((4-(2-(5-chloro-4-methoxy-2-methylphenyl)imidazo[1,2-a]pyridin-7-yl)-1-(cyclopropylsulfonyl)piperazin-2-yl)methoxy)-N,N-dimethylethanamine] | 0.07 µM |  |  |  |  |  | 5 µM | 8.5 µM | 4.7 µM | 4.5 µM | 5.6 µM |  |  |  |  |  |  |
| COc1cc(OC)c(-c2cn3ccc(N4CCN(c5cnccn5)CC4)cc3n2)cc1Cl [Example 285, 2-(5-chloro-2,4-dimethoxyphenyl)-7-(4-(pyrazin-2-yl)piperazin-1-yl)imidazo[1,2-a]pyridine] | 0.00747 µM |  |  |  |  |  | 0.7 µM | 0.67 µM | 0.69 µM | 0.7 µM | 0.72 µM |  |  |  |  |  |  |
| COC(=O)N[C@H]1CC[C@H](Nc2ccn3cc(-c4cc(Cl)c(OC)cc4OC)nc3c2)CC1 [Example 277, (methyl-4-((2-(5-chloro-2,4-dimethoxyphenyl)imidazo[1,2-a]pyridin-7-yl)amino)-trans-cyclohexyl)carbamate] | 0.00524 µM |  |  |  |  |  | 0.78 µM | 0.8 µM | 0.7 µM | 0.93 µM | 0.98 µM |  |  |  |  |  |  |
| CCS(=O)(=O)N1CCN(c2ccn3cc(-c4cc(Cl)c(OC)cc4OCCCN(C)C)nc3c2)CC1 [Example 199, 3-(4-chloro-2-(7-(4-(ethylsulfonyl)piperazin-1-yl)imidazo[1,2-a]pyridin-2-yl)-5-methoxyphenoxy)-N,N-dimethylpropan-1-amine] | 0.0168 µM | 3.9 µM | 6.4 µM | 4.8 µM | 3 µM | 5.2 µM |  |  |  |  |  |  |  |  |  |  |  |
| COc1cc(OC)c(-c2cn3ccc(N4CCN(S(=O)(=O)N(C)C)CC4)cc3n2)cc1Cl [Example 171, 4-[2-(5-chloro-2,4-dimethoxyphenyl)imidazo[1,2-a]pyridin-7-yl]-N,N-dimethylpiperazine-1-sulfonamide] | 0.0135 µM | 0.84 µM | 0.94 µM | 1.2 µM | 2 µM | 0.83 µM |  |  |  |  |  |  |  |  |  |  |  |
| CNC1CCN(c2ccn3cc(-c4cc(Cl)c(OC)cc4OC)nc3c2)CC1 [Example 24, 1-(2-(5-chloro-2,4-dimethoxyphenyl)imidazo[1,2-a]pyridin-7-yl)-N-methylpiperidin-4-amine hydrochloride] |  |  |  |  |  |  |  |  |  |  |  | 11 µM | 4.4 µM | 2.7 µM | 5.7 µM | 5.5 µM | 0.00939 µM |
